Experimental data published in patent US12502428B1, “Immunotherapeutic composition for prevention of obesity, nonalcoholic fatty liver disease and hypertriglyceridemia, and methods of use and preparation thereof” (Utopia Therapeutics Pvt Ltd., priority 2025, dated 2025).
Where no end group is shown, it is not given here.

Columns and labels:
[1] = Solubility of test item in phosphate buffered saline; type: physicochemical; conditions: in phosphate buffered saline (PBS; 1×)
Source text: The dosage for rats extrapolated using standard guidelines.
(§1) IAEC approval: IAEC approval obtained for conducting the study; test item name: UT-GT-001; batch number: G2467-145; date of manufacture: 9 Nov.

high-fat fed rat model = assay: Efficacy of the vaccine in high-fat fed rat model
Source text: Species details: species: rats (Wistar); justification: the rats (Wistar) are recognized by the international guidelines as the recommended test system and considerable historical data is available; source: good quality, healthy animals were procured from Hylasco Biotechnology India Pvt Ltd, (Reg. No. 1808/PO/RcBt/S/15/CPCSEA); animal age at the time of randomization: 07-08 weeks; animal weight at the time of randomization: males: 170±20 grams.
Husbandry and diet composition: number of animals: a total number of 6 animals (6M) per group; animal identification: individual cage tags; housing: animals were housed in stainless steel cages, one animal per cage; diet: pelleted rodent feed ad libitum; temperature: 30° C.; humidity: 30 to 70%; light: 12 hours light and 12 hours dark; water: RO purified water, ad libitum; cleaning of cages: twice in a week; acclimatization: the period of acclimatization was a minimum of seven days in the experimental room after the veterinary examination.
Formulation was freshly made just before dosing. For the primer dose of vaccine 3 mg peptide was dissolved in 1 ml of 1×PBS sterile solution to make 3 mg/mL stock solution. 0.4 mL of stock solution was combined with 0.4 mL of complete Freund's adjuvant by vigorous vortexing. For booster doses, the same procedure was followed except that the stock solution was combined with an equal amount of incomplete Freund's adjuvant instead of complete Freund's adjuvant.
Once the drop test was passed (the emulsion drop floated on water intact), the final formulation was administered to rats at 50 μL at each site of injection.
After acclimatization period, body weights of rats were recorded. The rats were randomized based on body weight after quarantine period into two groups n=6 per group as disease control (6M) and treatment group (6M). The disease control and treatment groups were given a high fat diet ad libitum for 8 consecutive weeks while the treatment group received the vaccine doses by intramuscular route as per study design as weekly once dosing for 7 consecutive weeks.
Initial primer dose was given only once during the treatment initiation and the remaining 6 booster doses were administered weekly once to the treatment group animals. Sham group animals received a normal rodent diet fortified with fat. Blood samples were collected on week 0, week 2, week 4, week 6 and week 8 from animals and analyzed for fasting blood glucose, triglycerides, total cholesterol and lipid profile. At every blood collection, 12 hour fasting was maintained for animals. On the final necropsy day, animals were subjected to euthanasia and major organs like liver, heart, lungs, kidneys, testes, spleen, and epididymal fat were collected, weighed and recorded. Half portion of liver was stored immediately in liquid nitrogen and kept at −80° C. for oil red stain and the remaining half was stored in 10% formalin solution, which was taken for histological evaluation by hematoxylin and eosin (H & E) staining.
Blood was centrifuged at 40° C., 4000 RPM for 15 minutes to separate serum and plasma. The serum and plasma samples were analyzed for serum biochemistry and fasting blood glucose respectively. Remaining serum samples were stored at −80° C. until dispatch to the test facility.
General clinical observations were conducted twice daily and detailed clinical observations were conducted once daily.

high-fat fed mice model = assay: Efficacy of the vaccine in high-fat fed mice model (diet induced obesity, DIO); type: in vivo, mice - Balb/c
Source text: This model is often referred to as diet induced obesity (DIO) model.
as §1
The dosage for mice extrapolated using standard guidelines.
Formulation was freshly made just before dosing. […] Immunization of peptide is along with Freund's adjuvant by proper mixing. […] Once the drop test passed (the emulsion drop floated on water as intact), the final formulation was administered to mice with the volume of 300 μl.
Immunization and blood collection. After the acclimatization period, body weights of mice were recorded.
At every blood collection, 12 hours fasting was maintained for animals. […] Blood samples were given to the diagnostic center for different blood parameter analysis.

[2] = throughout study duration, rats

For “GTX-SP-208: test item of the rat study: peptide, anti-hyperlipidemic agent, powder form, Galore Tx Pharmaceuticals; presumably the FATP1 peptide of the vaccine (MRAPGAGAASVVS)”, the solubility [1] was 100%.

For MRAPGAGAASVVS [vaccine, MRAPGAGAASVVS], the “critical organ weights (toxicology analysis)” value (high-fat fed rat model; 8 week study) was “no changes”, the “hematocrit (toxicology analysis)” value (high-fat fed rat model; 8 week study) was “no changes” and the “liver function (AST and ALT) (toxicology analysis)” value (high-fat fed rat model; 8 week study) was “improvement”. The adverse clinical signs (high-fat fed rat model; clinical observations, rats) was “no adverse clinical signs were observed”, the hand held observations (high-fat fed rat model; clinical observations, rats) was “responded normally” and the home cage observations (high-fat fed rat model; clinical observations, rats) was “no abnormalities were observed”. The “nervous and muscle measurements and other observations” value (high-fat fed rat model; clinical observations, rats) was “No abnormalities observed”, the open field activity (high-fat fed rat model; [2]) was “normal” and the stimulus response (high-fat fed rat model; [2]) was “normal”. For the same substance, the “abnormalities (clinical observation)” value (high-fat fed mice model) was “No abnormalities were observed”, the adverse clinical signs (high-fat fed mice model) was “No adverse clinical signs were observed” and the “high fat diet intake” value (high-fat fed mice model) was “normal”. For the same substance, the water intake (high-fat fed mice model) was “normal”.

“UT-GT-001: test item of the mice study: peptide, anti-hyperlipidemic agent, powder form, Galore Tx Pharmaceuticals; presumably the FATP1 peptide of the vaccine (MRAPGAGAASVVS)” gave a solubility [1] of 100%.
